The values that follow come from ChEMBL document CHEMBL5518237, “Design of Novel 2-Phenylquinazolin-4-amines as Selective CYP1B1 Inhibitors for Overcoming Paclitaxel Resistance in A549 Cells” (J Med Chem, 2024).

Data set [1] concerns the target T1, Cytochrome P450 1A1 (Homo sapiens, UniProt P04798).
T1 sequence (P04798 whole entry): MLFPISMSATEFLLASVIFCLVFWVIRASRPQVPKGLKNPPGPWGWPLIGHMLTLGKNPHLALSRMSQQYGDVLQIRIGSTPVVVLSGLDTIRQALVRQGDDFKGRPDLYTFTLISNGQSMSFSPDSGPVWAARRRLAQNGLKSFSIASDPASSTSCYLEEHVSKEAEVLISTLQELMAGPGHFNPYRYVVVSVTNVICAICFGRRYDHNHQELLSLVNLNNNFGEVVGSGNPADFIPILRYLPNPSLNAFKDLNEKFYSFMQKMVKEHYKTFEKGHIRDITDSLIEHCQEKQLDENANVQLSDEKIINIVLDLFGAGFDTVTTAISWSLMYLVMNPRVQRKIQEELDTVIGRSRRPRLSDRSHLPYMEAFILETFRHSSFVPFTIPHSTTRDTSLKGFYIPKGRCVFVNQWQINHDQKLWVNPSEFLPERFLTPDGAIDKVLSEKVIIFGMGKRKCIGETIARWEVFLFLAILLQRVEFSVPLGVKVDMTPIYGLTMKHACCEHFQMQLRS
The experiment in a line: Inhibition of human recombinant CYP1A1 using 7-ethoxyresorufin as substrate preincubated with enzyme for 5 mins followed by fluorescent substrate and NADPH addition and measured after 15 mins by EROD assay. It is filed as ADME.

For data set [2], the target named is T2, Cytochrome P450 1A2 (Homo sapiens, UniProt P05177).
T2 sequence (P05177 whole entry): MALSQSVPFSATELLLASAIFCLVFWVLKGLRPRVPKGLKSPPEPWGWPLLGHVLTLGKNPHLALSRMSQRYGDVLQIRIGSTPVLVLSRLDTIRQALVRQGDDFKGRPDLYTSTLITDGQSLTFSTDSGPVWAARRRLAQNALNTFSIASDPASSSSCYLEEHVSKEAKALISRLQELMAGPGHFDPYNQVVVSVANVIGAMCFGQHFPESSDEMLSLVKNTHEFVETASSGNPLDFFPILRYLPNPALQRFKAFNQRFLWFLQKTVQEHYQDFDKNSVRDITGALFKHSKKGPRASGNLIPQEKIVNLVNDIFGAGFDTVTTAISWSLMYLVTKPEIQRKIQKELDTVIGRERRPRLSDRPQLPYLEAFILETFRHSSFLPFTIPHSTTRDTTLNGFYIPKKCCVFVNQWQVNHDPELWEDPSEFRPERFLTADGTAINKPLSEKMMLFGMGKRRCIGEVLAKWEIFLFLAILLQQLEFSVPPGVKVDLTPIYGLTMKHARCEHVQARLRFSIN
In words: Inhibition of human recombinant CYP1A2 using 7-ethoxyresorufin as substrate preincubated with enzyme for 5 mins followed by fluorescent substrate and NADPH addition and measured after 50 mins by EROD assay. The format is ADME.

Data set [3] can be described thus: Selectivity ratio of IC50 for Inhibition of human recombinant CYP1A1 to IC50 for Inhibition of human recombinant CYP1B1. The format is ADME. Conditions: recombinant enzyme; call rule not given here.
A short description of data set [4]: Selectivity ratio of IC50 for Inhibition of human recombinant CYP1A2 to IC50 for Inhibition of human recombinant CYP1B1. It is filed as ADME. As to conditions: recombinant enzyme.
Data set [5] can be described thus: n-Octanol/PBS partition coefficient, log D of the radiolabeled compound at 0.37 MBq at pH 7.4 by gamma-counting analysis. Conditions: octanol/water. It is filed as physicochemical.
The nature of data set [6]: Drug uptake in human HCT-116 cells using radiolabeled compound at 0.037 MBq incubated for 120 mins by gamma-counting analysis. It is filed as ADME, cell-based. Conditions: hct-116, 2 h.
A short description of data set [7]: Drug uptake in human HCT-116 cells using radiolabeled compound at 0.037 MBq incubated for 240 mins by gamma-counting analysis. It is filed as ADME, cell-based. As to conditions: hct-116, 4 h.
Data set [8] can be described thus: Drug uptake in human A549 cells using radiolabeled compound at 0.037 MBq incubated for 120 mins by gamma-counting analysis. It is filed as ADME, cell-based. Conditions: a549, 2 h.
Data set [9] in a line: Drug uptake in human HEK293T cells using radiolabeled compound at 0.037 MBq incubated for 120 mins by gamma-counting analysis. As to conditions: hek-293t, 2 h. It is filed as ADME, cell-based.
Data set [10] in a line: Drug uptake in Kunming mouse intestine assessed as radioactive accumulation treated with radiolabeled compound at 0.37 MBq, iv measured after 120 mins by gamma-counting analysis. The format is ADME, organism-based. As to conditions: in vivo, 2 h.
Data set [11] is described as follows: Drug uptake in Kunming mouse lungs assessed as radioactive accumulation treated with radiolabeled compound at 0.37 MBq, iv measured after 120 mins by gamma-counting analysis. The format is ADME, organism-based, Lung. As to conditions: in vivo, 2 h.
The nature of data set [12]: Drug uptake in Kunming mouse kidney assessed as radioactive accumulation treated with radiolabeled compound at 0.37 MBq, iv measured after 120 mins by gamma-counting analysis. It is filed as ADME, organism-based. As to conditions: in vivo, 2 h.
The nature of data set [13]: Drug uptake in Kunming mouse thyroid assessed as radioactive accumulation treated with radiolabeled compound at 0.37 MBq, iv measured after 120 mins by gamma-counting analysis. The format is ADME, organism-based, Thyroid gland. Conditions: in vivo, 2 h.
The nature of data set [14]: Drug uptake in intestine of mouse xenografted with human HCT-116 cells assessed as radioactive accumulation treated with radiolabeled compound at 0.37 MBq, iv measured after 240 mins by gamma-counting analysis. The format is ADME, organism-based. As to conditions: in vivo, 4 h. For orientation: In xenograft studies the graft and the host belong to different species.

Data set [15] can be described thus: Drug uptake in liver of mouse xenografted with human HCT-116 cells assessed as radioactive accumulation treated with radiolabeled compound at 0.37 MBq, iv measured after 240 mins by gamma-counting analysis. The format is ADME, organism-based. Conditions: in vivo, 4 h.
Data set [16] is described as follows: Drug uptake in kidney of mouse xenografted with human HCT-116 cells assessed as radioactive accumulation treated with radiolabeled compound at 0.37 MBq, iv measured after 240 mins by gamma-counting analysis. It is filed as ADME, organism-based. Conditions: in vivo, 4 h.
Data set [17] can be described thus: Drug metabolism in mouse xenografted with human HCT-116 cells assessed as deiodination treated with radiolabeled compound at 0.37 MBq, iv measured after 240 mins by gamma-counting analysis. The format is ADME, organism-based. Conditions: 4 h.
The nature of data set [18]: Drug uptake in HCT-116 cells bearing mouse assessed as ratio of radioactive accumulation in tumor to muscle treated with radiolabeled compound at 0.37 MBq, iv measured after 30 mins by gamma-counting analysis. Conditions: in vivo, 0.5 h. It is filed as ADME, organism-based.
A short description of data set [19]: Drug uptake in HCT-116 cells bearing mouse assessed as ratio of radioactive accumulation in tumor to muscle treated with radiolabeled compound at 0.37 MBq, iv measured after 240 mins by gamma-counting analysis. It is filed as ADME, organism-based. Conditions: in vivo, 4 h.
Data set [20] can be described thus: Drug metabolism in Kunming mouse assessed as deiodination treated with radiolabeled compound at 0.37 MBq, iv measured after 120 mins by gamma-counting analysis. The format is ADME, organism-based. Conditions: in vivo, 2 h.

By IC50 is commonly meant the point on the concentration scale where inhibition reaches its midpoint. The term logD denotes the decadic logarithm of the distribution of all forms, ionised or not, between an organic phase and buffer at a given pH. `Nc1nc(-c2ccc(I)cc2)nc2ccccc12`: the results for the IC50 in data set [1] and in [2] were 5.74 nM and 1240 nM, respectively. Further, the “Ratio IC50” value in data set [3] is on record as 287; in [4], 6.23 10^4No_unit. The logD in data set [5] was determined as 3.24. For the same compound, the Drug uptake result is reported as “Active” in data set [6]; 23.95% in data set [7]; “Active” in [8]; “Active” in [9]; “Active” in [10]; “Active” in data set [11]. In addition, the Drug uptake result in data set [12], in [13], in data set [14], in [15] and in data set [16] was “Active” throughout. The Drug metabolism entry in [17] and in data set [20] was “Metabolite_Notdetected” throughout. The Ratio amounted to 1.27 in data set [18] and 1.84 in data set [19].
